ChEMBL document CHEMBL2073956, “ATP-dependent transport of bile salts by rat multidrug resistance-associated protein 3 (Mrp3)” (J Biol Chem, 2000)
Where a name gives a salt, the structure may show the parent alone.

Assays:
Assay type in all cases: functional, cell membranes, Membrane vesicle
[1] = target: T1, Mrp3 (ATP-binding cassette sub-family C member 3) (Rattus norvegicus, UniProt O88563); assay: TP_TRANSPORTER: inhibition of Taurocholate uptake (Taurochorate: 1.2 uM, TLCAS: 20 uM) in membrane vesicles isolated from Mrp3-expressing LLC-PK1 cells; parameters: scale not given: the % may be the effect or the level left; details: pig, probe taurocholate, read-out: Activity
[2] = target: T1, Mrp3 (ATP-binding cassette sub-family C member 3); assay: (§1) TP_TRANSPORTER: uptake in membrane vesicles isolated from Mrp3-expressing LLC-PK1 cells; details: pig, membrane vesicles from Mrp3-expressing LLC-PK1 cells
[3] = target: T2, ATP-binding cassette sub-family C member 3 (MRP3) (Rattus norvegicus, UniProt O88563); assay: TP_TRANSPORTER: inhibition of E217betaG uptake (E217betaG: 0.055 uM, TLC-S: 20 uM) in membrane vesicles from LLC-PK1 cells; parameters: scale not given: the % may be the effect or the level left; details: pig, probe E217betaG, read-out: Activity
[4] = target: T1, Mrp3 (ATP-binding cassette sub-family C member 3); assay: TP_TRANSPORTER: inhibition of Taurocholate uptake (Taurochorate: 1.2 uM, E217betaG: 200 uM) in membrane vesicles isolated from Mrp3-expressing LLC-PK1 cells; parameters: scale not given: the % may be the effect or the level left; details: pig, probe taurocholate, read-out: Activity
[5] = target: T2, ATP-binding cassette sub-family C member 3 (MRP3); assay: TP_TRANSPORTER: inhibition of Taurocholate uptake (Taurochorate: 1.2 uM, E217betaG: 75 uM) in membrane vesicles from LLC-PK1 cells; parameters: scale not given: the % may be the effect or the level left; details: pig, probe taurocholate, read-out: Activity
[6] = target: T2, ATP-binding cassette sub-family C member 3 (MRP3); assay: TP_TRANSPORTER: inhibition of E217betaG uptake (E217betaG: 0.055 uM, GC: 200 uM) in membrane vesicles from LLC-PK1 cells; parameters: scale not given: the % may be the effect or the level left; details: pig, probe E217betaG, read-out: Activity
[7] = target: T3, ATP-binding cassette sub-family C member 3 (Rattus norvegicus, UniProt O88563); assay: as §1; details: pig, llc-pk1
[8] = target: T2, ATP-binding cassette sub-family C member 3 (MRP3); assay: TP_TRANSPORTER: inhibition of Taurocholate uptake (Taurochorate: 1.2 uM, CA: 500 uM) in membrane vesicles from LLC-PK1 cells; parameters: scale not given: the % may be the effect or the level left; details: pig, probe taurocholate, read-out: Activity
[9] = target: T1, Mrp3 (ATP-binding cassette sub-family C member 3); assay: TP_TRANSPORTER: inhibition of E217betaG uptake (E217betaG: 0.055 uM, GC: 200 uM) in membrane vesicles isolated from Mrp3-expressing LLC-PK1 cells; parameters: scale not given: the % may be the effect or the level left; details: pig, probe E217betaG, read-out: Activity
[10] = target: T3, ATP-binding cassette sub-family C member 3; assay: TP_TRANSPORTER: inhibition of Taurocholate uptake (Taurochorate: 1.2 uM, GC: 50 uM) in membrane vesicles isolated from Mrp3-expressing LLC-PK1 cells; parameters: scale not given: the % may be the effect or the level left; details: pig, llc-pk1, 50 µM
[11] = target: T3, ATP-binding cassette sub-family C member 3; assay: (§2) TP_TRANSPORTER: uptake in membrane vesicles from LLC-PK1 cells; details: pig
[12] = target: T2, ATP-binding cassette sub-family C member 3 (MRP3); assay: TP_TRANSPORTER: inhibition of E217betaG uptake (E217betaG: 0.055 uM, TCDC-S: 50 uM) in membrane vesicles from LLC-PK1 cells; parameters: scale not given: the % may be the effect or the level left; details: pig, probe E217betaG, read-out: Activity
[13] = target: T3, ATP-binding cassette sub-family C member 3; assay: TP_TRANSPORTER: inhibition of E217betaG uptake (E217betaG: 0.055 uM, TCDC-S: 50 uM) in membrane vesicles isolated from Mrp3-expressing LLC-PK1 cells; parameters: scale not given: the % may be the effect or the level left; details: pig, llc-pk1, 50 µM
[14] = target: T2, ATP-binding cassette sub-family C member 3 (MRP3); assay: TP_TRANSPORTER: inhibition of Taurocholate uptake (Taurochorate: 1.2 uM, TCDC-S: 50 uM) in membrane vesicles from LLC-PK1 cells; parameters: scale not given: the % may be the effect or the level left; details: pig, probe taurocholate, read-out: Activity
[15] = target: T1, Mrp3 (ATP-binding cassette sub-family C member 3); assay: TP_TRANSPORTER: inhibition of Taurocholate uptake (TCDC-S: 50 uM) in membrane vesicles isolated from Mrp3-expressing LLC-PK1 cells; parameters: scale not given: the % may be the effect or the level left; details: pig, probe taurocholate, read-out: Activity
[16] = substrate: [H][C@]12CC[C@]3([H])[C@]([H])(CC[C@]4(C)C([C@H](C)CCC(=O)NCCS(=O)(=O)O)CC[C@@]34[H])[C@@]1(C)CC[C@@H](OS(=O)(=O)O)C2; assay: as §2

In the case of C[C@H](CCC(=O)NCCS(=O)(=O)O)C1CC[C@H]2[C@@H]3CC[C@@H]4C[C@H](OS(=O)(=O)O)CC[C@]4(C)[C@H]3CC[C@]12C (stereo partly drawn), the activity at 20 µM [1] is reported as 12.2%, the Km [2] is reported as 3.06 µM and the activity at 20 µM [3] is reported as 15.5%.

In the case of C[C@]12CC[C@@H]3c4ccc(O)cc4CC[C@H]3[C@@H]1CC[C@@H]2O[C@@H]1O[C@H](C(=O)O)[C@@H](O)[C@H](O)[C@H]1O [ESTRADIOL 17B GLUCURONIDE], the activity at 200 µM [4] is reported as 78.4% and the activity at 75 µM [5] is reported as 78.4%.

C[C@H](CCC(=O)NCC(=O)O)[C@H]1CC[C@H]2[C@@H]3[C@H](O)C[C@@H]4C[C@H](O)CC[C@]4(C)[C@H]3C[C@H](O)[C@]12C [GLYCOCHOLIC ACID] was tested, and the activity at 200 µM [6] was 13.9%, the Activity [7] was “substrate [+]” and the activity at 500 µM [8] was 0%. For the same molecule, the activity at 200 µM [9] was 13.9%, the Activity [10] was 16% and the Activity [11] was “substrate [+]”.

For C[C@H](CCC(=O)NCCS(=O)(=O)O)C1CC[C@H]2[C@@H]3[C@H](O)C[C@@H]4C[C@H](OS(=O)(=O)O)CC[C@]4(C)[C@H]3CC[C@]12C (stereo partly drawn) [TAUROCHENODEOXYCHOLATE SULFATE], the activity at 50 µM [12] was 26.2%, the Activity [13] was 26.2% and the Activity [7] was “substrate [+]”. The activity at 50 µM [14] was 27.8%, the activity at 50 µM [15] was 27.8% and the Activity [11] was “substrate [+]”.

B1: ATP-binding cassette sub-family C member 3 (Rattus norvegicus) (protein)
chain: MDRLCGSGELGSKFWDSNLTVYTNTPDLTPCFQNSLLAWVPCIYLWAALPCYLFYLRHHRLGYIVLSCLSRLKTALGVLLWCISWVDLFYSFHGLVHGSSPAPVFFITPLLVGITMLLATLLIQYERLRGVRSSGVLIIFWLLCVICAIIPFRSKILLALAEGKILDPFRFTTFYIYFALVLCAFILSCFQEKPPLFSPENLDTNPCPEASAGFFSRLSFWWFTKLAILGYRRPLEDSDLWSLSEEDCSHKVVQRLLEAWQKQQTQASGPQTAALEPKIAGEDEVLLKARPKTKKPSFLRALVRTFTSSLLMGACFKLIQDLSPSSTHSCSASSSGLFRPHGPYWWGFLLAGLMFVSSTMQTLILHQHYHCIFVMALRIRTAIIGVIYRKALTITNSVKREYTVGEMVNLMSVDAQRFMDVSPFINLLWSAPLQVILAIYFLWQILGPSALAGVAVIVLLIPLNGAVSMKMKTYQVQQMKFKDSRIKLMSEILNGIKVLKLYAWEPTFLEQVEGIRQGELQLLRKGAYLQAISTFIWVCTPFMVTLITLGVYVCVDKNNVLDAEKAFVSLSLFNILKIPLNLLPQLISGMTQTSVSLKRIQDFLNQDELDPQCVERKTISPGRAITIHNGTFSWSKDLPPTLHSINIQIPKGALVAVVGPVGCGKSSLVSALLGEMEKLEGAVSVKGSVAYVPQQAWIQNCTLQENVLFGQPMNPKRYQQALETCALLADLDVLPGGDQTEIGEKGINLSGGQRQRVSLARAVYSDANIFLLDDPLSAVDSHVAKHIFDQVIGPEGVLAGKTRVLVTHGISFLPQTDFIIVLADGQITEMGHYSELLQHDGSFANFLRNYAPDENQEANEGVLQHANEEVLLLEDTLSTHTDLTDTEPAIYEVRKQFMREMSSLSSEGEGQNRPVLKRYTSSLEKEVPATQTKETGALIKEEIAETGNVKLSVYWDYAKSVGLCTTLFICLLYAGQNAVAIGANVWLSAWTNDVEEHGQQNNTSVRLGVYATLGILQGLLVMLSAFTMVVGAIQAARLLHTALLHNQIRAPQSFFDTTPSGRILNRFSKDIYVIHEVLAPTILMLFNSFYTSISTIVVIVASTPLFCVVVLPLAVFYGFVQRFYVATSRQLKRLESVSRSPIFSHFSETVTGTSVIRAYGRVQDFKVLSDAKVDSNQKTTYPYIASNRWLGVHVEFVGNCVVLFSALFAVIGRNSLNPGLVGLSVSYALQVTLSLNWMIRTLSDLESNIIAVERVKEYSKTETEAPWVLESNRAPEGWPRSGVVEFRNYSVRYRPGLELVLKNLTLHVQGGEKVGIVGRTGAGKSSMTLCLFRILEAAEGEIFIDGLNVAHIGLHDLRSQLTIIPQDPILFSGTLRMNLDPFGRYSDEDIWRTLELSHLSAFVSSQPTGLDFQCSEGGDNLSVGQRQLVCLARALLRKSRVLVLDEATAAIDLETDDLIQGTIRTQFEDCTVLTIAHRLNTIMDYNRVLVLDKGVVAEFDSPVNLIAAGGIFYGMAKDAGLA
In the case of B1, the Km [16] is reported as 3.06 µM.
